Reference: PubChem BioAssay AID743137 (The Scripps Research Institute Molecular Screening Center, 2013)
The source made the active and inactive calls.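 The calls were made as follows: active = LYPLA1 and LYPLA2 each at a ratio of 0.5 or below, with under two anti-target hydrolases also at that level; inactive = the rest.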

Experiments:
Test in all cases: SILAC ABPP off-target profiling in HeLa cells – cell-based, LC-MS, powders, selectivity assay for LYPLA1/LYPLA2 inhibitor project, late-stage follow-up (AID 743137)
[1] = biological target: Prolyl endopeptidase-like (Homo sapiens) (UniProt Q4J6C6); conditions: FP-biotin LC-MS, serine hydrolase panel, PREPL, at 1 µM, active compounds read low
[2] = tested on: ABHD12; conditions: FP-biotin LC-MS, serine hydrolase panel, at 1 µM, active compounds read low
[3] = biological target: FAM111B (UniProt Q6SJ93); conditions: FP-biotin LC-MS, serine hydrolase panel, at 1 µM, active compounds read low
[4] = biological target: Acylamino-acid-releasing enzyme (Homo sapiens) (UniProt P13798); conditions: FP-biotin LC-MS, serine hydrolase panel, APEH, at 1 µM, active compounds read low
[5] = biological target: Acyl-protein thioesterase 2 (Homo sapiens) (UniProt O95372); conditions: FP-biotin LC-MS, serine hydrolase panel, LYPLA2, at 1 µM, active compounds read low
[6] = biological target: Acyl-protein thioesterase 1 (Homo sapiens) (UniProt O75608); conditions: FP-biotin LC-MS, serine hydrolase panel, LYPLA1, at 1 µM, active compounds read low
[7] = biological target: sn-1-specific diacylglycerol lipase ABHD11 (Homo sapiens) (UniProt Q8NFV4); conditions: FP-biotin LC-MS, serine hydrolase panel, at 1 µM, active compounds read low
[8] = tested on: ABHD10; conditions: FP-biotin LC-MS, serine hydrolase panel, at 1 µM, active compounds read low
[9] = tested on: LYPLAL1; conditions: FP-biotin LC-MS, serine hydrolase panel, at 1 µM, active compounds read low
[10] = tested on: NCEH1; conditions: FP-biotin LC-MS, serine hydrolase panel, at 1 µM, active compounds read low
[11] = biological target: Platelet-activating factor acetylhydrolase IB subunit alpha1 (Homo sapiens) (UniProt Q15102); conditions: FP-biotin LC-MS, serine hydrolase panel, PAFAH1B3, at 1 µM, active compounds read low
[12] = biological target: Platelet-activating factor acetylhydrolase 2, cytoplasmic (Homo sapiens) (UniProt Q99487); conditions: FP-biotin LC-MS, serine hydrolase panel, PAFAH2, at 1 µM, active compounds read low
[13] = tested on: FAM108B1; conditions: FP-biotin LC-MS, serine hydrolase panel, at 1 µM, active compounds read low
[14] = biological target: Lysosomal Pro-X carboxypeptidase (Homo sapiens) (UniProt P42785); conditions: FP-biotin LC-MS, serine hydrolase panel, PRCP, at 1 µM, active compounds read low
[15] = biological target: Lysosomal protective protein (Homo sapiens) (UniProt P10619); conditions: FP-biotin LC-MS, serine hydrolase panel, CTSA, at 1 µM, active compounds read low
[16] = tested on: MAGL (MGLL); conditions: FP-biotin LC-MS, serine hydrolase panel, at 1 µM, active compounds read low
[17] = tested on: PNPLA6; conditions: FP-biotin LC-MS, serine hydrolase panel, at 1 µM, active compounds read low
[18] = tested on: SCPEP1; conditions: FP-biotin LC-MS, serine hydrolase panel, at 1 µM, active compounds read low
[19] = biological target: Acyl-coenzyme A thioesterase 2, mitochondrial (Homo sapiens) (UniProt P49753); conditions: FP-biotin LC-MS, serine hydrolase panel, ACOT2, at 1 µM, active compounds read low
[20] = tested on: ABHD6; conditions: FP-biotin LC-MS, serine hydrolase panel, at 1 µM, active compounds read low
[21] = biological target: Prolyl endopeptidase FAP (Homo sapiens) (UniProt Q12884); conditions: FP-biotin LC-MS, serine hydrolase panel, at 1 µM, active compounds read low
[22] = tested on: ESD; conditions: FP-biotin LC-MS, serine hydrolase panel, at 1 µM, active compounds read low
[23] = biological target: Platelet-activating factor acetylhydrolase IB subunit alpha2 (Homo sapiens) (UniProt P68402); conditions: FP-biotin LC-MS, serine hydrolase panel, PAFAH1B2, at 1 µM, active compounds read low
[24] = biological target: Lysosomal phospholipase A and acyltransferase (Homo sapiens) (UniProt Q8NCC3); conditions: FP-biotin LC-MS, serine hydrolase panel, PLA2G15, at 1 µM, active compounds read low
[25] = biological target: PNPLA4 (UniProt P41247); conditions: FP-biotin LC-MS, serine hydrolase panel, at 1 µM, active compounds read low
[26] = biological target: Dipeptidyl peptidase 8 (Homo sapiens) (UniProt Q6V1X1); conditions: FP-biotin LC-MS, serine hydrolase panel, DPP8, at 1 µM, active compounds read low
Sequence of Dipeptidyl peptidase 8 (Homo sapiens) (Q6V1X1 whole entry, looked up): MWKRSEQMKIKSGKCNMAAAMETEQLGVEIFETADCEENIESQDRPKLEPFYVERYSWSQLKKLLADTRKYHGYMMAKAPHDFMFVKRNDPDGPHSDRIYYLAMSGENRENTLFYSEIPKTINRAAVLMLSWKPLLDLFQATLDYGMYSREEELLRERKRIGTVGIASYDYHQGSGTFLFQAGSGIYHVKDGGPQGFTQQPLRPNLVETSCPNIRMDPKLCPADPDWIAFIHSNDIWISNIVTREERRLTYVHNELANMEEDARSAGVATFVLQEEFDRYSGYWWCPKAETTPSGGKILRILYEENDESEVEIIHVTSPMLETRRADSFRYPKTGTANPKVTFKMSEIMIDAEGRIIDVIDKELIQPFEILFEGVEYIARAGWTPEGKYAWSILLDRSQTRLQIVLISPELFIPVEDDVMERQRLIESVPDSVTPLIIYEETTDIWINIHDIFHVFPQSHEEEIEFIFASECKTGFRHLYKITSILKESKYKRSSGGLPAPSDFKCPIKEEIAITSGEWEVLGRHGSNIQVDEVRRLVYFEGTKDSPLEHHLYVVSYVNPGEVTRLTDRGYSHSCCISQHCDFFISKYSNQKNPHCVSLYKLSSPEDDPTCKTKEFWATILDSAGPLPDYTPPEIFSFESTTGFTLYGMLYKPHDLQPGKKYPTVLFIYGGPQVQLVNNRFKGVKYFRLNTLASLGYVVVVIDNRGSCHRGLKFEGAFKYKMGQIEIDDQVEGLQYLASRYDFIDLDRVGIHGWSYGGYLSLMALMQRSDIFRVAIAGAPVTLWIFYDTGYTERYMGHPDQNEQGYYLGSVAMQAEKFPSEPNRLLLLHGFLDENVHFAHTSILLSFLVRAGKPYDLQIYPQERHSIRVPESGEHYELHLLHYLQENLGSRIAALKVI

Sequence of sn-1-specific diacylglycerol lipase ABHD11 (Homo sapiens) (Q8NFV4 whole entry, looked up): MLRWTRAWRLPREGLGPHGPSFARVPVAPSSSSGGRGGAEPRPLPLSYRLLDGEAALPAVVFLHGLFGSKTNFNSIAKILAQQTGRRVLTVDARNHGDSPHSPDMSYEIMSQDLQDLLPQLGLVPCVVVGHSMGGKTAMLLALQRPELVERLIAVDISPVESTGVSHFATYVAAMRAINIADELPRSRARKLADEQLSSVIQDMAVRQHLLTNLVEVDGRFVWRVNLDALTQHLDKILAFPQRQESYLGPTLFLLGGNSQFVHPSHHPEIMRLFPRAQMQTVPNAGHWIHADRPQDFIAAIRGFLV
Sequence of Acyl-protein thioesterase 1 (Homo sapiens) (O75608 whole entry, looked up): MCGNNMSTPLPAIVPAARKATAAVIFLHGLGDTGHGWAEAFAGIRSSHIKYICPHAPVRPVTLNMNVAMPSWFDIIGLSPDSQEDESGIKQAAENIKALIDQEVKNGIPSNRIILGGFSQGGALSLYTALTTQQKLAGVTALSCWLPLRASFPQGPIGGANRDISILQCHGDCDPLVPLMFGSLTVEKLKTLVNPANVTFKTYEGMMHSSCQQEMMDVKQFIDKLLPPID
Sequence of Platelet-activating factor acetylhydrolase IB subunit alpha1 (Homo sapiens) (Q15102 whole entry, looked up): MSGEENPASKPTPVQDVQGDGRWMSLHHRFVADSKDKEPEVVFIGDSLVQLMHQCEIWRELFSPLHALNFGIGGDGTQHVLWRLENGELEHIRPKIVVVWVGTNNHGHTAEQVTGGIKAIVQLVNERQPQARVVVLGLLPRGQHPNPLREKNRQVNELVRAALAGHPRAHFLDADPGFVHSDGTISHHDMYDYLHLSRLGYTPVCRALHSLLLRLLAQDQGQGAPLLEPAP
Sequence of PNPLA4 (P41247 whole entry, looked up): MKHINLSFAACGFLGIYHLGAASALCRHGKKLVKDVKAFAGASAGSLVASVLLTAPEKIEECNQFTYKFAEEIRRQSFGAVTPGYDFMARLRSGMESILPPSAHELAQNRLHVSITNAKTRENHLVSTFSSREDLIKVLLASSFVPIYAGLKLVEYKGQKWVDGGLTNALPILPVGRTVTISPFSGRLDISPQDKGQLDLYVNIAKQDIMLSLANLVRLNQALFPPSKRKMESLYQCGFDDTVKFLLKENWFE
Sequence of Lysosomal Pro-X carboxypeptidase (Homo sapiens) (P42785 whole entry, looked up): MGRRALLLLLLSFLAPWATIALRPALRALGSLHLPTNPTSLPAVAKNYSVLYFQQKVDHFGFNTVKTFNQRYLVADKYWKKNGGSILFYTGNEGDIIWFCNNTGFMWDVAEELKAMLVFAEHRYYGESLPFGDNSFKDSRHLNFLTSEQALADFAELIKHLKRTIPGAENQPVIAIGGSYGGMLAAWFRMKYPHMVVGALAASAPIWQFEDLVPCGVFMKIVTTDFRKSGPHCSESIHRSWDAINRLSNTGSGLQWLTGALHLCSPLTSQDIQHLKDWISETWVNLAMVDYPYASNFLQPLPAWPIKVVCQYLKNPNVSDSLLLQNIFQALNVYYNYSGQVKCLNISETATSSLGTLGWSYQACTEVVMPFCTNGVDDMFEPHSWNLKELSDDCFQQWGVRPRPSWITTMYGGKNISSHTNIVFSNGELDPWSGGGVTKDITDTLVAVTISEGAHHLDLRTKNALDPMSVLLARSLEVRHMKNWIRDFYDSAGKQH
Sequence of Prolyl endopeptidase FAP (Homo sapiens) (Q12884 whole entry, looked up): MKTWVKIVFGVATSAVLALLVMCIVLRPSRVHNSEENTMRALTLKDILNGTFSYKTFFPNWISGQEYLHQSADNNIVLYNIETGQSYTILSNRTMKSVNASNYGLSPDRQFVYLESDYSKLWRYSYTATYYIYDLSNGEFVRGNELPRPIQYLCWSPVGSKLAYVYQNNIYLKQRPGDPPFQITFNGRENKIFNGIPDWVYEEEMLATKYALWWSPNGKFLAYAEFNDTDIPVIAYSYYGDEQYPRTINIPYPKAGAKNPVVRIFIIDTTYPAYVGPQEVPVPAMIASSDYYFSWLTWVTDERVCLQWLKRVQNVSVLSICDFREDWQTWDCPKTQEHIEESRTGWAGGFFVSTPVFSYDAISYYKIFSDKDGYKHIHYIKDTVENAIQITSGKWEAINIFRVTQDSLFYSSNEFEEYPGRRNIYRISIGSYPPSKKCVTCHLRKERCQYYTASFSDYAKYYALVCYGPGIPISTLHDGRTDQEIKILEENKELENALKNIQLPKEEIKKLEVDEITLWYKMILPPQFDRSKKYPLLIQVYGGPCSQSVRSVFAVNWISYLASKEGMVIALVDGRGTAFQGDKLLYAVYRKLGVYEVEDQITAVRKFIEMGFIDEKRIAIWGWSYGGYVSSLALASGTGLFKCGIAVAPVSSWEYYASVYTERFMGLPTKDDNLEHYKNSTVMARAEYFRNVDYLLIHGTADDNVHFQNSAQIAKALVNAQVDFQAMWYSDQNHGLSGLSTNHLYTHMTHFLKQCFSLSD
Sequence of Acylamino-acid-releasing enzyme (Homo sapiens) (P13798 whole entry, looked up): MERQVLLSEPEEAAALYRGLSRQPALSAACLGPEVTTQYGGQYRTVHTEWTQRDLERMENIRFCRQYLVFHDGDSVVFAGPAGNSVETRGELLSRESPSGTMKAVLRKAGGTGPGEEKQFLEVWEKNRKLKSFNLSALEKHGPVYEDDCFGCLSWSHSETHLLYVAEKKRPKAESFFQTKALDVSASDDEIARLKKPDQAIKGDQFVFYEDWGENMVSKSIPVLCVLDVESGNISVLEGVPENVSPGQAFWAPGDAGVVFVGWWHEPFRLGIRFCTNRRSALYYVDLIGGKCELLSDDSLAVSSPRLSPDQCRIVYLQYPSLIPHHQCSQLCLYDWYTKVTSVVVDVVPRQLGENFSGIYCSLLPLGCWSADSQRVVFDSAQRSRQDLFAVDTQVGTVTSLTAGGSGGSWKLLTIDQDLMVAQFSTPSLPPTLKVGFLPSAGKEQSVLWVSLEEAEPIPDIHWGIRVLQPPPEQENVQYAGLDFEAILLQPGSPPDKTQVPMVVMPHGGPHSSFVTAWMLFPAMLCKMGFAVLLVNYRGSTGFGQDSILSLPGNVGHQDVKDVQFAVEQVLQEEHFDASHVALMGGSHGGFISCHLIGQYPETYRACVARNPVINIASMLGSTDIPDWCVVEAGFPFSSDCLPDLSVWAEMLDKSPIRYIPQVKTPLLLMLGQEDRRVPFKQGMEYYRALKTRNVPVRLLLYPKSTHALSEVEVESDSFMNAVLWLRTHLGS
Sequence of Prolyl endopeptidase-like (Homo sapiens) (Q4J6C6 whole entry, looked up): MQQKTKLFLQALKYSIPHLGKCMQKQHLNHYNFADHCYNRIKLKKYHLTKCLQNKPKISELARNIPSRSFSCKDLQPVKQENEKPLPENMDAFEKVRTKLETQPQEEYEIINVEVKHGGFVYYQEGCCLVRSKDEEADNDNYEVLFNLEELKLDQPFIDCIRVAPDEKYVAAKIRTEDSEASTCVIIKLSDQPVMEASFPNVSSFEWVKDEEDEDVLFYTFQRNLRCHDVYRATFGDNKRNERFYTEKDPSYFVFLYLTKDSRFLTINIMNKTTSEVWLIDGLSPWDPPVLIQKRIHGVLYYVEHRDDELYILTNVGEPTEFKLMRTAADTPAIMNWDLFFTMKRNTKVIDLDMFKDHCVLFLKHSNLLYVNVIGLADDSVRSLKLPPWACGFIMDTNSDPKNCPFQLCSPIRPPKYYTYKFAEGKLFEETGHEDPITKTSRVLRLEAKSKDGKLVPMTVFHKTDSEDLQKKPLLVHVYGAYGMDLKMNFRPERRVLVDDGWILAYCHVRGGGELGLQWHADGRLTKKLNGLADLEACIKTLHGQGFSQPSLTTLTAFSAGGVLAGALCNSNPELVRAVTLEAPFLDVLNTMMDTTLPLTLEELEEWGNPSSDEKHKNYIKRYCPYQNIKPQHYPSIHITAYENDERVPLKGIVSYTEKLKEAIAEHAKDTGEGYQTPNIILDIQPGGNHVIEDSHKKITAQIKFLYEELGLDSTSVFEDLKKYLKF
Sequence of Platelet-activating factor acetylhydrolase IB subunit alpha2 (Homo sapiens) (P68402 whole entry, looked up): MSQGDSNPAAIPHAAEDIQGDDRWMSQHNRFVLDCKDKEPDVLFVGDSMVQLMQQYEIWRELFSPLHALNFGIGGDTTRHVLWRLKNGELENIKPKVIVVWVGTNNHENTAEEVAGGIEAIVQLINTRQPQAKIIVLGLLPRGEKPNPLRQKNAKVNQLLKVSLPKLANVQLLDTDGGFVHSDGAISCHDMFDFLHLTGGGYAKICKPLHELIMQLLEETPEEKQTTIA

- inhibitor/DMSO ratio [1]: 1.5 (inactive)
- inhibitor/DMSO ratio [2]: 0.83 (inactive)
- inhibitor/DMSO ratio [3]: 1.4 (inactive)
- inhibitor/DMSO ratio [4]: 1.3 (inactive)
- inhibitor/DMSO ratio [5]: 0.084
- inhibitor/DMSO ratio [6]: 0.05
- inhibitor/DMSO ratio [7]: 1.3 (inactive)
- inhibitor/DMSO ratio [8]: 1.3 (inactive)
- inhibitor/DMSO ratio [9]: 1.7 (inactive)
- inhibitor/DMSO ratio [10]: 0.98 (inactive)
- inhibitor/DMSO ratio [11]: 1.4 (inactive)
- inhibitor/DMSO ratio [12]: 1.4 (inactive)
- inhibitor/DMSO ratio [13]: 0.98 (inactive)
- inhibitor/DMSO ratio [14]: 0.93 (inactive)
- inhibitor/DMSO ratio [15]: 1.1 (inactive)
- inhibitor/DMSO ratio [16]: 0.57 (inactive)
- inhibitor/DMSO ratio [17]: 1.2 (inactive)
- inhibitor/DMSO ratio [18]: 0.93 (inactive)
- inhibitor/DMSO ratio [19]: 1.4 (inactive)
- inhibitor/DMSO ratio [20]: 0.05
- inhibitor/DMSO ratio [21]: 1 (inactive)
- inhibitor/DMSO ratio [22]: 1.2 (inactive)
- inhibitor/DMSO ratio [23]: 1.2 (inactive)
- inhibitor/DMSO ratio [24]: 1.4 (inactive)
- inhibitor/DMSO ratio [25]: 1.2 (inactive)
- inhibitor/DMSO ratio [26]: 1.4 (inactive)
SMILES: O=C(ON1C(=O)C2CN(C(=O)N3CCOCC3)CCN2C1=O)N1CCC(CCc2ccc(Cl)cc2)CC1 (stereo unspecified)
